Legend:
[1] = system: primary human embryonic lung (HEL) fibroblast cells; test: Cytostatic activity, Coulter counter; format: cell-based; conditions: Homo sapiens, Fibroblast; 72 h, cell number by Coulter counter; primary fibroblasts
Experimental: (§1) The experiments were carried out on six human tumour and one murine cell lines, which are derived from five solid tumour types and two (one murine and one human) suspension tumour cell lines. The following cell lines were used: HCT 116 (colon carcinoma), SW 620 (colon carcinoma), MCF-7 (breast carcinoma), H 460 (lung carcinoma), L1210 (murine leukemia), CEM (human lymphoma) and HeLa (cervix carcinoma). […] Compounds 3d and 3e with a benzene ring in the amide moiety, exerted a somewhat stronger (but still rather poor) cytostatic effect (IC50 ≈ 20-90 µM). […] The compounds were also equally cytostatic against primary human embryonic lung (HEL) fibroblast cells (Table 2). The obtained data clearly point to the obligatory presence of the [4-chloro-3-(trifluoromethyl)phenyl]carbamoyl group being crucial for high potency. Also, the 4a–e series of compounds are far more lipophilic than the 2 and 3 series of compounds, which may be related to their increased cytostatic potential.
(§2) The cytostatic activity of the tested compounds against murine leukemia L1210, human cervix carcinoma HeLa, human embrionic lung (HEL) and T-lymphocyte CEM cells was determined with cells grown in suspension (L1210, CEM) or monolayers (HeLa, HEL) in 200 µL-wells of 96-well microtiter plates (initial cell number: 5–7.5 × 10^4 cells/well). After 48 (L1210) or 72 (CEM, HeLa, HEL) h, the tumour cell number was determined by the use of a Coulter counter.

[2] = system: CEM (human lymphoma); test: Cytostatic activity, Coulter counter; format: cell-based; conditions: Homo sapiens; 72 h, cell number by Coulter counter; read-out: Tumour cell growth/IC50 CEM
Experimental: as §1, §2

[3] = system: L1210 (murine leukemia); test: Cytostatic activity, Coulter counter; format: cell-based; conditions: Mus musculus, L1210; 48 h, cell number by Coulter counter; read-out: Tumour cell growth/IC50 L1210
Experimental: as §1, §2

[4] = system: SW 620 (colon carcinoma); test: Cytostatic activity, MTT assay; format: cell-based, human; conditions: Homo sapiens, SW-620, 72 h, read-out: Tumour cell growth/IC50 SW 620
Experimental: as §1
(§3) HCT 116, SW 620, MCF-7, and H 460 cells were cultured as monolayers and maintained in Dulbecco’s modified Eagle medium (DMEM), supplemented with 10% fetal bovine serum (FBS), 2 mmol·L^–1 L-glutamine, 100 U·mL^–1 penicillin and 100 μg·mL^–1 streptomycin in a humidified atmosphere with 5% CO2 at 37 °C. The growth inhibition activity was assessed as described previously, according to the slightly modified procedure of the National Cancer Institute, Developmental Therapeutics Program. Briefly, the cells were seeded onto standard 96-well microtiter plates on day 0. The cell concentrations were adjusted according to the cell population doubling time (PDT): 3000 cells/well for HCT116 and SW 620 cell lines (PDT = 20–24 h) and 4,000 cells/well for MCF-7 cell lines (PDT = 33 h). Tested agents were then added in five consecutive 10-fold dilutions (10^–8 to 10^–4 mol·L^–1) and incubated for further 72 h. Working dilutions were freshly prepared on the day of testing. The solvent (DMSO) was also tested for eventual inhibitory activity by adjusting its concentration to be the same as in working concentrations (maximal concentration of DMSO was 0.25%). After 72 h of incubation, the cell growth rate was evaluated by performing the MTT assay (Promega) which detects dehydrogenase activity in viable cells. The absorbency (OD, optical density) was measured on a microplate reader at 570 nm. Each test point was performed in quadruplicate in at least three individual experiments. The results are expressed as IC50, which is the concentration necessary for 50% of inhibition. […] Each result is a mean value from three separate experiments.

[5] = system: MCF-7 (breast carcinoma); test: Cytostatic activity, MTT assay; format: cell-based, human; conditions: Homo sapiens, MCF7, 72 h, read-out: Tumour cell growth/IC50 MCF-7
Experimental: as §1, §3

[6] = system: H 460 (lung carcinoma); test: Cytostatic activity, MTT assay; format: cell-based, human; conditions: Homo sapiens, NCI-H460, 72 h, read-out: Tumour cell growth/IC50 H 460
Experimental: as §1, §3

[7] = system: HCT 116 (colon carcinoma); test: Cytostatic activity, MTT assay; format: cell-based, human; conditions: Homo sapiens, HCT-116, 72 h, read-out: Tumour cell growth/IC50 HCT 116
Experimental: as §1, §3

[8] = system: HeLa (cervix carcinoma); test: Cytostatic activity, Coulter counter; format: cell-based, human; conditions: Homo sapiens, HeLa; 72 h, cell number by Coulter counter; read-out: Tumour cell growth/IC50 HeLa
Experimental: as §1, §2

[9] = system: DNA synthesis in CEM cells; test: Antimetabolic activity: [CH3-3H]dThd incorporation (DNA synthesis) in CEM cell cultures; format: cell-based; conditions: Homo sapiens, CCRF-CEM, ~20 h, TCA-insoluble material
Excerpt: (§4) A variety of compounds (2a, 3a, 4a with a cycloalkyl substituent directly attached to nitrogen atom, 2c, 3c, 4c with a cycloalkyl bound to nitrogen through a short spacer and 2e, 3e, 4e with an aromatic substituent) have been investigated on their inhibitory activity against DNA, RNA and protein synthesis in CEM cell cultures. The compounds were equally inhibitory to dThd (DNA synthesis), Urd (RNA synthesis) and Leu (protein synthesis) incorporation into TCA-insoluble cell material. The 2 series of compounds were least inhibitory whereas the 4 series were most inhibitory (IC50 in the lower micromolar range). Their antimetabolic IC50 values closely corresponded to their antiproliferative IC50 values. They also behaved as sorafenib in terms of antimetabolic potential (Table 3).
(§5) The procedures have been modified from previously described methods. Human CEM cells were seeded in 96-well microtiter plates at 10 × 10^4 cells/200 µL-well in the presence of serial dilutions of the tested compounds. Then, 0.25 µCi of [CH3-^3H]dThd (radiospecificity: 52 Ci/mmol) or 1 µCi of [5-^3H]Urd (radiospecificity: 26 Ci/mmol) or [4,5-^3H]Leu (radiospecificity: 160 Ci/mmol) were added and the drug-exposed tumour cell cultures further incubated at 37 °C for ~20 h. Then the content of each well was transfered to glass fiber discs (Wattman, GE Healthcare, Maidstone, UK), mounted on a manifold (Millipore, Billerica, MA, USA) and subsequently washed with PBS (to remove the radiolabel material that has not been incorporated in the cellular macromolecules), 10% and 5% trichoroacetic acid (TCA) (to precipitate DNA, RNA and proteins) and ethanol. Then, the radioactivity (TCA precipitate) associated with each disc was determined in a liquid scintillation counter (Packard, Palo Alto, CA, USA).

[10] = system: protein synthesis in CEM cells; test: Antimetabolic activity: [4,5-3H]Leu incorporation (protein synthesis) in CEM cell cultures; format: cell-based; conditions: Homo sapiens, CCRF-CEM, ~20 h, TCA-insoluble material
Excerpt: as §4, §5

[11] = system: RNA synthesis in CEM cells; test: Antimetabolic activity: [5-3H]Urd incorporation (RNA synthesis) in CEM cell cultures; format: cell-based; conditions: Homo sapiens, CCRF-CEM, ~20 h, TCA-insoluble material
Excerpt: as §4, §5

SMILES | melting point [°C] | IC50 [4] [µM] | IC50 [5] [µM] | IC50 [6] [µM] | IC50 [7] [µM] | IC50 [9] [µM] | IC50 [10] [µM] | IC50 [11] [µM] | IC50 [1] [µM] | IC50 [2] [µM] | IC50 [3] [µM] | IC50 [8] [µM]
O=C(NC1CCCCC1)c1cc(Cl)ccn1 [Compound 2b, 4-Chloro-N-cyclohexylpyridine-2-carboxamide] | 116 to 119 | > 100 | ≥ 100 | 35 ± 12 | > 100 | – | – | – | > 100 | > 100 | > 100 | > 100
O=C(NCCc1ccccc1)c1cc(Cl)ccn1 [Compound 2e, 4-Chloro-N-phenylethylpyridine-2-carboxamide] | – | > 100 | 57 ± 46 | > 100 | ≥ 100 | > 100 | > 100 | > 100 | > 100 | > 100 | > 100 | > 100
Nc1ccc(Oc2ccnc(C(=O)NC3CCCCC3)c2)cc1 [Compound 3b, 4-(4-Aminophenoxy)-N-cyclohexylpyridine-2-carboxamide] | 150 to 153 | ≥ 100 | ≥ 100 | 65 ± 33 | 37 ± 1 | – | – | – | > 100 | > 100 | 234 ± 4.5 | > 100
O=C(NCC1CCCCC1)c1cc(Cl)ccn1 [Compound 2c, 4-Chloro-N-cyclohexylmethylpyridine-2-carboxamide] | 107 to 108 | ≥ 100 | ≥ 100 | > 100 | ≥ 100 | > 100 | > 100 | > 100 | > 100 | > 100 | > 100 | > 100
O=C(NCc1ccccc1)c1cc(Cl)ccn1 [Compound 2d, 4-Chloro-N-benzylpyridine-2-carboxamide] | 70 to 72 | 71 ± 28 | ≥ 100 | > 100 | ≥ 100 | – | – | – | > 100 | ≥ 100 | ≥ 100 | > 100

Now those with a lower IC50 [4], led by results:

melting point [°C] | IC50 [4] [µM] | IC50 [5] [µM] | IC50 [6] [µM] | IC50 [7] [µM] | IC50 [9] [µM] | IC50 [10] [µM] | IC50 [11] [µM] | SMILES | IC50 [1] [µM] | IC50 [2] [µM] | IC50 [3] [µM] | IC50 [8] [µM]
156 to 160 | 3 ± 0.4 | 2 ± 0.1 | 2 ± 0.2 | 3 ± 1 | 20.1 ± 10.9 | 27.4 ± 12.7 | 12.2 ± 8.4 | O=C(Nc1ccc(Oc2ccnc(C(=O)NCC3CCCCC3)c2)cc1)Nc1ccc(Cl)c(C(F)(F)F)c1 [Compound 4c, 4-[4-[[4-Chloro-3-(trifluoromethyl)phenyl]carbamoylamino]phenoxy]-N-cyclohexylmethyl-pyridine-2-carboxamide] | 2.9 | 2 ± 0.5 | 1.8 ± 0.3 | 2.7 ± 1.8
– | 2 ± 0.4 | 2 ± 0.1 | 2 ± 0.2 | 3 ± 0.7 | 12.7 ± 9 | 11.8 ± 7.7 | 6.6 ± 1.8 | O=C(Nc1ccc(Oc2ccnc(C(=O)NCCc3ccccc3)c2)cc1)Nc1ccc(Cl)c(C(F)(F)F)c1 [Compound 4e, 4-[4-[[4-Chloro-3-(trifluoromethyl)phenyl]carbamoylamino]phenoxy]-N-phenylethyl-pyridine-2-carboxamide] | 4.6 ± 0.36 | 2.5 ± 0.9 | 2.2 ± 0.2 | 1.7 ± 0.2
– | 3 ± 0.2 | 2 ± 0.6 | 2 | 3 ± 0.8 | – | – | – | O=C(Nc1ccc(Oc2ccnc(C(=O)NC3CCCCC3)c2)cc1)Nc1ccc(Cl)c(C(F)(F)F)c1 [Compound 4b, 4-[4-[[4-Chloro-3-(trifluoromethyl)phenyl]carbamoylamino]phenoxy]-N-cyclohexyl-pyridine-2-carboxamide] | 3.2 ± 0.2 | 3.6 ± 0.9 | 3.2 ± 1.7 | 3 ± 0.2
160 to 163 | 2 ± 0.08 | 2 ± 0.2 | 2 ± 0.2 | 2 ± 0.8 | – | – | – | O=C(Nc1ccc(Oc2ccnc(C(=O)NCc3ccccc3)c2)cc1)Nc1ccc(Cl)c(C(F)(F)F)c1 [Compound 4d, 4-[4-[[4-Chloro-3-(trifluoromethyl)phenyl]carbamoylamino]phenoxy]-N-benzyl-pyridine-2-carbox-amide] | 3.1 ± 0.2 | 4.3 ± 0.4 | 2 ± 0.4 | 2.6 ± 0.6
